Laboratory results as given in patent publication US6635653B2 (priority 2001, dated 2003).
Values joined by “and” are separate entries in the source; they are usually repeats but may differ in a detail not shown here. Equal entries are not always repeated.

target: T1, human opioid receptor-like receptor (ORL-1) (Homo sapiens, UniProt P41146); test: biochemical; assay type: binding; conditions: Nociceptin Affinity calc Ki
T1 construct: host or cells: HEK-293
T1 sequence (P41146 whole entry): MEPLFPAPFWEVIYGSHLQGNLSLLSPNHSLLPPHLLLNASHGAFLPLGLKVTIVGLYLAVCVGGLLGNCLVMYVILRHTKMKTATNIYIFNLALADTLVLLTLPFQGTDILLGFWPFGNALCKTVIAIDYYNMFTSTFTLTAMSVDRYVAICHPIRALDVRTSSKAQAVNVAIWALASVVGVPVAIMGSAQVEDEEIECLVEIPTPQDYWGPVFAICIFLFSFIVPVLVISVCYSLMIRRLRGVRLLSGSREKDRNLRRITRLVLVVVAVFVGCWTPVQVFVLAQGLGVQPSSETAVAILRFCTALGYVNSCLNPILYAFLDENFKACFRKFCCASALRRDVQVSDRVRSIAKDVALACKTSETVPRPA

| Compound | Ki |
| --- | --- |
| O=C1NN=C(c2ccccc2)C12CCN(CCC(c1ccccc1)c1ccccc1)CC2 [8-(3,3-Bis(phenyl)propyl)-4-phenyl-2,3,8-triazospiro[4.5]dec-3-en-1-one] | 75 nM |
| CCCC1CCC(N2CCC3(CC2)C(=O)NN=C3c2ccccc2)CC1 (centres unmarked) [8-(4-propylcyclohexyl)-4-phenyl-2,3,8-triazospiro[4.5]dec-3-en-1-one] | 29.7 nM |
| CC(C)CCC(C)N1CCC2(CC1)C(=O)NN=C2c1ccccc1 (centres unmarked) [8-(5-methylhex-2-yl)-4-phenyl-2,3,8-triazospiro[4.5]dec-3-en-1-one] | 11.5 nM |
| O=C1NN=C(c2ccccc2)C12CCN(C1c3ccccc3CCc3ccccc31)CC2 [8-(10,11-Dihydro-5H-dibenzo[a,d]-cyclohepten-5-yl)-4-phenyl-2,3,8-triazospiro[4.5]dec-3-en-1-one] | 282 nM |
| O=C1NN=C(c2ccccc2)C12CCN(Cc1ccccc1)CC2 [8-(benzyl)-4-phenyl-2,3,8-triazospiro[4.5]dec-3-en-1-one] | 293 nM |
| O=C1NN=C(c2ccccc2)C12CCN(CC1CCCCCCC1)CC2 [8-(cyclooctylmethyl)-4-phenyl-2,3,8-triazospiro[4.5]dec-3-en-1-one] | 8.1 nM and 61 nM |
| O=C1NN=C(c2ccccc2)C12CCN(C1CCC3CCCCC3C1)CC2 (centres unmarked) [8-(decahydro-2-naphthyl)-4-phenyl-2,3,8-triazospiro[4.5]dec-3-en-1-one] | 1.1 nM |
| O=C1NN=C(c2ccccc2)C12CCN(Cc1ccc(OCc3ccccc3)cc1)CC2 [8-(p-benzyloxybenzyl)-4-phenyl-2,3,8-triazospiro[4.5]dec-3-en-1-one] | 138 nM |
| O=C1NN=C(c2ccccc2)C12CCN(Cc1ccc(-c3ccccc3)cc1)CC2 [8-(p-phenylbenzyl)-4-phenyl-2,3,8-triazospiro[4.5]dec-3-en-1-one] | 7170 nM |
| O=C1NN=C(c2ccccc2)C12CCN(CCCC(c1ccc(F)cc1)c1ccc(F)cc1)CC2 [8-[4,4-Bis(4-fluorophenyl)butyl]-4-phenyl-2,3,8-triazospiro[4.5]dec-3-en-1-one] | 2590 nM |
| CC(C)C1CCC(N2CCC3(CC2)C(=O)NN=C3c2ccccc2)CC1 (centres unmarked) [8-[4-(2-propyl)-cyclohexyl]-4-phenyl-2,3,8-triazospiro[4.5]dec-3-en-1-one] | 1.5 nM |
| O=C1NN=C(c2ccccc2)C12CCN(Cc1ccc3ccccc3c1)CC2 [8-[(naphth-2-yl-methyl)]-4-phenyl-2,3,8-triazospiro[4.5]dec-3-en-1-one] | 402 nM |

same assay, conditions: read-out: Nociceptin Affinity calc Ki

| Compound | Ki |
| --- | --- |
| O=C1NN=C(c2ccccc2)C12CCN(C1CC3CCC1C3)CC2 (centres unmarked) [8-norbornyl-4-phenyl-2,3,8-triazospiro[4.5]dec-3-en-1-one] | 897 nM |

target: Mu opioid receptor (Homo sapiens, UniProt P35372); test: Affinity at the μ receptor ([35S]GTPγS binding assay, membranes); conditions: read-out: Mu Receptor Affinity calc Ki
Description: Affinity at the μ receptor for compounds was obtained according to the following assay:
Mu opioid receptor membrane solution was prepared by sequentially adding final concentrations of 0.075 μg/μl of the desired membrane protein, 10 μg/ml saponin, 3 μM GDP and 0.20 nM [^35S]GTPγS to binding buffer (100 mM NaCl, 10 mM MgCl2, 20 mM HEPES, pH 7.4) on ice. The prepared membrane solution (190 μl/well) was transferred to 96-shallow well polypropylene plates containing 10 μl of 20×concentrated stock solutions of agonist prepared in DMSO. Plates were incubated for 30 min at room temperature with shaking. Reactions were terminated by rapid filtration onto 96-well Unifilter GF/B filter plates (Packard) using a 96-well tissue harvester (Brandel) and followed by three filtration washes with 200 μl ice-cold binding buffer (10 mM NaH2PO4, 10 mM Na2HPO4, pH 7.4). Filter plates were subsequently dried at 50° C. for 2-3 hours. Fifty μl/well scintillation cocktail (MicroScint20, Packard) was added and plates were counted in a Packard Top-Count for 1 min/well.
Data were analyzed using the curve fitting functions in GraphPad PRISM™, v.3.0 and the results for several compounds are set forth in table 2 below: […]

Mu opioid receptor, sequence (P35372 whole entry, species assumed): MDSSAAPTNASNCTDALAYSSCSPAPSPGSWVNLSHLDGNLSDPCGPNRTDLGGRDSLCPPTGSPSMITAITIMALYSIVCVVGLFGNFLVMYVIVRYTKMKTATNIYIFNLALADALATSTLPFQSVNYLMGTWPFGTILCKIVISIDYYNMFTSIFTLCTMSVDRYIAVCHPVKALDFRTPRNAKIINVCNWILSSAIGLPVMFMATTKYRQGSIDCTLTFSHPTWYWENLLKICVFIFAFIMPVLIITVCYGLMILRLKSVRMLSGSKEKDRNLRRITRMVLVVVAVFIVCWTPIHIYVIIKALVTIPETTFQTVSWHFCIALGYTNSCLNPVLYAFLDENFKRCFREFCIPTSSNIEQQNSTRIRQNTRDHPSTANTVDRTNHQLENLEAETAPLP

| Compound | Ki |
| --- | --- |
| O=C1NNC(c2ccccc2)C12CCN(C1CCc3ccccc3C1)CC2 (centres unmarked) [8-(1,2,3,4-tetrahydro-2-naphthyl)-1-phenyl-2,3,8-triazospiro[4.5]decan-4-one] | 115 nM |
| O=C1NNC(c2ccccc2)C12CCN(Cc1ccccc1)CC2 (centres unmarked) [8-(benzyl)-1-phenyl-2,3,8-triazospiro[4.5]decan-4-one] | 56 nM |
| O=C1NNC(c2ccccc2)C12CCN(CC1CCCCCCC1)CC2 (centres unmarked) [8-(cyclooctylmethyl)-1-phenyl-2,3,8-triazospiro[4.5]decan-4-one] | 191 nM |
| O=C1NNC(c2ccccc2)C12CCN(Cc1ccc3ccccc3c1)CC2 (centres unmarked) [8-[(naphth-2-yl-methyl)]-1-phenyl-2,3,8-triazospiro[4.5]decan-4-one] | 84 nM |
